molecular target: GSK-3β (Homo sapiens, UniProt P49841); test: Kinase luminescent assay (ADP-Glo), GSK-3β inhibition; format: biochemical; details: 25 μM ATP, 1 hour, room temperature; mean of quadruplicate of two experiments; read-out: IC50 against GSK-3β
Description: Kinase Luminescent Assay.
Kinase inhibition was assessed with the ADP-Glo Kinase Assay. […] The reaction mixture was incubated for 1 hour at room temperature followed by the addition of the ADP-Glo′ reagents according to the manufacturer's protocol. The kinase inhibitor staurosporine was used at 1 μM as a reference control. Each data point was collected in quadruplicate of two independent experiments.

GSK-3β, sequence (P49841 whole entry): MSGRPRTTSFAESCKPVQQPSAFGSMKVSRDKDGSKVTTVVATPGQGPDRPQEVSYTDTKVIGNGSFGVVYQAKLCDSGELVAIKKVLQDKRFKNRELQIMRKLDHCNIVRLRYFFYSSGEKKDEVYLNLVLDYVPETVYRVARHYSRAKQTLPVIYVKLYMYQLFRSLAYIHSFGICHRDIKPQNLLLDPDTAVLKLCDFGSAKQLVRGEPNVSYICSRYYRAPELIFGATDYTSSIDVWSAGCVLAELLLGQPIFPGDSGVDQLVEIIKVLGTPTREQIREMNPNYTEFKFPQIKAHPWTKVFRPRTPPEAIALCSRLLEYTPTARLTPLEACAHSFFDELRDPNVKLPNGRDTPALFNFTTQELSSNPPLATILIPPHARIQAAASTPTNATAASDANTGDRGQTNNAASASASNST

Row | SMILES | IC50 [µM]
1 | O=c1cc(-c2ccc(O)c(O)c2)oc2c([C@@H]3O[C@H](CO)[C@@H](O)[C@H](O)[C@H]3O)c(O)cc(O)c12 [Compound 3, orientin, reference compound] | 5153 ± 31
2 | COc1ccc(-c2cc(=O)c3c(OC)c([C@@H]4O[C@H](CO)[C@@H](O)[C@H](O)[C@H]4O)c(OC)cc3o2)cc1OC [Compound 5, 2-(3,4-Dimethoxyphenyl)-5,7-dimethoxy-6-((2S,3R,4R,5S,6R)-3,4,5-trihydroxy-6-(hydroxymethyl)tetrahydro-2H-pyran-2-yl)-4H-chromen-4-one] | 239.2 ± 1.2
3 | COc1ccc(-c2cc(=O)c3c(OC)c([C@@H]4O[C@H](C(=O)O)[C@@H](O)[C@H](O)[C@H]4O)c(OC)cc3o2)cc1OC [Compound 6, (2S,3S,4R,5R,6S)-6-(2-(3,4-Dimethoxyphenyl)-5,7-dimethoxy-4-oxo-4H-chromen-6-yl)-3,4,5-trihydroxytetrahydro-2H-pyran-2-carboxylic acid] | 237.3 ± 1.4
4 | COC(=O)[C@H]1O[C@@H](c2c(OC)cc3oc(-c4ccc(OC)c(OC)c4)cc(=O)c3c2OC)[C@H](O)[C@@H](O)[C@@H]1O [Compound 7, Methyl (2S,3S,4R,5R,6S)-6-(2-(3,4-dimethoxyphenyl)-5,7-dimethoxy-4-oxo-4H-chromen-6-yl)-3,4,5-trihydroxytetrahydro-2H-pyran-2-carboxylate] | 135
5 | CCCNC(=O)[C@H]1O[C@@H](c2c(OC)cc3oc(-c4ccc(OC)c(OC)c4)cc(=O)c3c2OC)[C@H](O)[C@@H](O)[C@@H]1O [Compound 8, (2S,3S,4R,5R,6S)-6-(2-(3,4-Dimethoxyphenyl)-5,7-dimethoxy-4-oxo-4H-chromen-6-yl)-3,4,5-trihydroxy-N-propyltetrahydro-2H-pyran-2-carboxamide] | 29.2 ± 1.1
6 | CCCCNC(=O)[C@H]1O[C@@H](c2c(OC)cc3oc(-c4ccc(OC)c(OC)c4)cc(=O)c3c2OC)[C@H](O)[C@@H](O)[C@@H]1O [Compound 10, (2S,3S,4R,5R,6S)-6-(2-(3,4-Dimethoxyphenyl)-5,7-dimethoxy-4-oxo-4H-chromen-6-yl)-3,4,5-trihydroxy-N-butyltetrahydro-2H-pyran-2-carboxamide] | 33.3 ± 1.1
7 | COc1ccc(-c2cc(=O)c3c(OC)c([C@@H]4O[C@H](C(=O)NCC(C)C)[C@@H](O)[C@H](O)[C@H]4O)c(OC)cc3o2)cc1OC [Compound 11, (2S,3S,4R,5R,6S)-6-(2-(3,4-Dimethoxyphenyl)-5,7-dimethoxy-4-oxo-4H-chromen-6-yl)-3,4,5-trihydroxy-N-isobutyltetrahydro-2H-pyran-2-carboxamide] | 31.1 ± 1.2
8 | CCCCCNC(=O)[C@H]1O[C@@H](c2c(OC)cc3oc(-c4ccc(OC)c(OC)c4)cc(=O)c3c2OC)[C@H](O)[C@@H](O)[C@@H]1O [Compound 12, (2S,3S,4R,5R,6S)-6-(2-(3,4-Dimethoxyphenyl)-5,7-dimethoxy-4-oxo-4H-chromen-6-yl)-3,4,5-trihydroxy-N-pentyltetrahydro-2H-pyran-2-carboxamide] | 28 ± 1.1
9 | CCCCCCNC(=O)[C@H]1O[C@@H](c2c(OC)cc3oc(-c4ccc(OC)c(OC)c4)cc(=O)c3c2OC)[C@H](O)[C@@H](O)[C@@H]1O [Compound 13, (2S,3S,4R,5R,6S)-6-(2-(3,4-Dimethoxyphenyl)-5,7-dimethoxy-4-oxo-4H-chromen-6-yl)-3,4,5-trihydroxy-N-hexyltetrahydro-2H-pyran-2-carboxamide] | 9.4 ± 0.9
10 | COc1ccc(-c2cc(=O)c3c(OC)c([C@@H]4O[C@H](C(=O)NC5CC5)[C@@H](O)[C@H](O)[C@H]4O)c(OC)cc3o2)cc1OC [Compound 14, (2S,3S,4R,5R,6S)—N-Cyclopropyl-6-(2-(3,4-dimethoxyphenyl)-5,7-dimethoxy-4-oxo-4H-chromen-6-yl)-3,4,5-trihydroxytetrahydro-2H-pyran-2-carboxamide] | 25.8 ± 1.1
11 | COc1ccc(-c2cc(=O)c3c(OC)c([C@@H]4O[C@H](C(=O)NC5CCC5)[C@@H](O)[C@H](O)[C@H]4O)c(OC)cc3o2)cc1OC [Compound 15, (2S,3S,4R,5R,6S)—N-Cyclobutyl-6-(2-(3,4-dimethoxyphenyl)-5,7-dimethoxy-4-oxo-4H-chromen-6-yl)-3,4,5-trihydroxytetrahydro-2H-pyran-2-carboxamide] | 61.9 ± 1.9
12 | COc1ccc(-c2cc(=O)c3c(OC)c([C@@H]4O[C@H](C(=O)NC5CCCC5)[C@@H](O)[C@H](O)[C@H]4O)c(OC)cc3o2)cc1OC [Compound 16, (2S,3S,4R,5R,6S)—N-Cyclopentyl-6-(2-(3,4-dimethoxyphenyl)-5,7-dimethoxy-4-oxo-4H-chromen-6-yl)-3,4,5-trihydroxytetrahydro-2H-pyran-2-carboxamide] | 13.1 ± 1.1
13 | COc1ccc(-c2cc(=O)c3c(OC)c([C@@H]4O[C@H](C(=O)NCC5CCCCC5)[C@@H](O)[C@H](O)[C@H]4O)c(OC)cc3o2)cc1OC [Compound 18, (2S,3S,4R,5R,6S)—N-(Cyclohexylmethyl)-6-(2-(3,4-dimethoxyphenyl)-5,7-dimethoxy-4-oxo-4H-chromen-6-yl)-3,4,5-trihydroxytetrahydro-2H-pyran-2-carboxamide] | 26 ± 1.2
14 | COc1ccc(-c2cc(=O)c3c(OC)c([C@@H]4O[C@H](C(=O)NC56CC7CC(CC(C7)C5)C6)[C@@H](O)[C@H](O)[C@H]4O)c(OC)cc3o2)cc1OC [Compound 19, (2S,3S,4R,5R,6S)—N-(Adamantan-1-yl)-6-(2-(3,4-dimethoxyphenyl)-5,7-dimethoxy-4-oxo-4H-chromen-6-yl)-3,4,5-trihydroxytetrahydro-2H-pyran-2-carboxamide] | 33.5 ± 0.8
15 | COc1ccc(-c2cc(=O)c3c(OC)c([C@@H]4O[C@H](C(=O)Nc5ccccc5)[C@@H](O)[C@H](O)[C@H]4O)c(OC)cc3o2)cc1OC [Compound 20, (2S,3S,4R,5R,6S)-6-(2-(3,4-Dimethoxyphenyl)-5,7-dimethoxy-4-oxo-4H-chromen-6-yl)-3,4,5-trihydroxy-N-phenyltetrahydro-2H-pyran-2-carboxamide] | 19.7 ± 1.1
16 | COc1ccc(-c2cc(=O)c3c(OC)c([C@@H]4O[C@H](C(=O)Nc5nccs5)[C@@H](O)[C@H](O)[C@H]4O)c(OC)cc3o2)cc1OC [Compound 23, (2S,3S,4R,5R,6S)-6-(2-(3,4-Dimethoxyphenyl)-5,7-dimethoxy-4-oxo-4H-chromen-6-yl)-3,4,5-trihydroxy-N-(thiazol-2-yl)tetrahydro-2H-pyran-2-carboxamide] | 35.1 ± 1
17 | COc1ccc(-c2cc(=O)c3c(OC)c([C@@H]4O[C@H](C(=O)NCCF)[C@@H](O)[C@H](O)[C@H]4O)c(OC)cc3o2)cc1OC [Compound 26, (2S,3S,4R,5R,6S)-6-(2-(3,4-Dimethoxyphenyl)-5,7-dimethoxy-4-oxo-4H-chromen-6-yl)-3,4,5-trihydroxy-N-(2-fluoroethyl)tetrahydro-2H-pyran-2-carboxamide] | 34.8 ± 1
18 | COc1ccc(-c2cc(=O)c3c(OC)c([C@@H]4O[C@H](C(=O)N[C@H](C)C(F)(F)F)[C@@H](O)[C@H](O)[C@H]4O)c(OC)cc3o2)cc1OC [Compound 31, (2S,3S,4R,5R,6S)-6-(2-(3,4-Dimethoxyphenyl)-5,7-dimethoxy-4-oxo-4H-chromen-6-yl)-3,4,5-trihydroxy-N—((R)-1,1,1-trifluoropropan-2-yl) tetrahydro-2H-pyran-2-carboxamide] | < 20

same assay, conditions: vs isoorientin 1

Row | SMILES | increase of potency against GSK-3β relative to 1 [fold]
19 | COC(=O)[C@H]1O[C@@H](c2c(OC)cc3oc(-c4ccc(OC)c(OC)c4)cc(=O)c3c2OC)[C@H](O)[C@@H](O)[C@@H]1O [Compound 7, Methyl (2S,3S,4R,5R,6S)-6-(2-(3,4-dimethoxyphenyl)-5,7-dimethoxy-4-oxo-4H-chromen-6-yl)-3,4,5-trihydroxytetrahydro-2H-pyran-2-carboxylate] | 1.37

Reference: patent US11254700B2, “GSK-3β inhibitors and use thereof in methods of treatment” (UNIVERSITY OF HAWAII, priority 2017, dated 2022)
